These results are taken from patent US4886821A, “2-pyridinecarbothioamides and pharmaceutical compositions comprising the same useful as anti ulcer agents” (American Home Products Corporation, priority 1987, dated 1989).

Experiment [1] deals with gastric mucosal lesions produced by ethanol. In words: Ethanol induced cytotoxicity (gastric mucosal lesions) in rats. The settings on record: for ED50: Rattus norvegicus, po; for % Inhibition: oral, inhibition of lesion formation vs control. The experiment is classed as in vivo, Male Sprague-Dawley rats. How it is done: The purpose of this assay is to evaluate the effectiveness of the compounds of the present invention in preventing the formation of gastric mucosal lesions produced by ethanol. The assay is based on A. Robert, et al: Gastroenterology, 77: 433-443, 1979.
Male Sprague-Dawley rats weighing between 120-150 grams were fasted for 24 hours prior to the experiment (water ad libitum). At least two hours before dosing, the animals were placed in individual cages with wire grid bottoms and denied access to water.
Ethanol was administered orally at 1 mL per animal. The compounds of the present invention were dissolved in water or suspended in water with 0.5% carboxymethylcellulose and administered orally at a dose based on an appropriate standard giving ED50 to ED75 response of cytoprotective activity.
The rats were randomly divided into groups of equal number, ordinarily 10 to a group. The rats were weighed and the individual weights were recorded. Exactly 1 hour (4 hours in the case of Example 5) prior to the administration of ethanol, the screening group was treated with the compounds of the present invention, and the control group with the vehicle. One hour after administering the ethanol the animals were sacrificed by cervical dislocation. The stomachs were removed, cut along the greater curvature and cleansed of all debris with tap water. The stomachs were set aside and kept moist with saline until the lesions were scored.
Macroscopic lesions on the gastric mucosa were numerically graded. The final grade assigned a stomach was the sum of all the grades.
Streaks longer than 6 mm are graded in multiples of 2 mm.
The degree of cytotoxicity occuring in each group is represented as the mean±S.E.M.
The mean of each treatment group was compared to the control group and expressed as the % inhibition of lesion formation.

The next experiment relates to stress induced ulcers. In words: Stress-induced gastric ulcers in rats. The class given is in vivo, Male rats. The settings on record: Rattus norvegicus, po; orally or parenterally, usually 15 to 45 minutes prior to stress; restraint at 4-5 °C for 3 hours, sodium taurocholate p.o.; read-out: Stress Induced Ulcer ED50. Here is the method:
The purpose of this assay is to evaluate the effectiveness of the compounds of the present invention in preventing stress induced ulcers.
Male rats (280-380 g) were fasted for 18 hours (water available ad libitum) prior to use in experiments. Eight to twelve rats were used per group.
Drug solutions or suspensions were prepared in physiological saline solution. Suspensions were prepared with the aid of 0.5% carboxymethylcellulose in physiological saline solution. Drugs were administered orally or parenterally at predetermined intervals (usually 15 to 45 minutes) prior to stress.
This test procedure is according to the method of Senay et al., Proc. Soc. Exp. Biol. Med. 124, 1221 (1967), modified to produce a more consistent ulcer incidence. After drug administration, the rats were immobilized in metallic restrainers and placed in a cold room at 4°-5° C. for 3 hours before they were killed by cervical dislocation. Each rat was given 20 mg of sodium taurocholate p.o. immediately before placing it in the restrainer. After killing the rats, the stomachs were excised and examined. Macroscopic ulcers were subjectively assigned a grade from 1 to 3 on the basis of increasing size. The number of ulcers in each size category was determined and multiplied by the respective grade; the addition of the resultant values gave the cumulative ulcer score. The average cumulative ulcer score of each treatment group was compared to that of the control group and the percent inhibition of ulcer formation as calculated. When the responses obtained were directly proportional to the doses employed, ED50 values were determined from the dose-response curves obtained.

Another experiment deals with ethanol induced ulcer. The following applies: Robert et al., Scand. J. Gastroenterol. 1984; cited from earlier work.
Setting [2] is: 10 mg/kg, 1 hour prior to ethanol.

With `Fc1ccc(NC(=S)c2ccccn2)c(F)c1` [Example 2, N-(2,4-Difluorophenyl)-2-pyridinecarbothioamide], the results for the ED50 (in experiment [1]; with stress induced ulcers) were 4.8 mg/kg and 38 mg/kg, respectively.

On to `Fc1ccc(F)c(NC(=S)c2ccccn2)c1` [Example 12, N--(2,5-difluorophenyl)-2-pyridinecarbothioamide], for which the 50% effective dose (ED50) (as a rule, the midpoint of the dose-response relation) in experiment [1] amounted to 6.2 mg/kg.

As to `CCN(C(=S)c1ccccn1)c1cc(F)cc(F)c1` [Example 8, N-(3,5-Difluorophenyl)-N-ethyl-2-pyridinecarbothioamide], the % Inhibition (as a rule, the change of the read-out against control, counted positive when it falls) in experiment [1] (setting [2]) was 13%.

Take `CN(C(=S)c1ccccn1)c1cc(F)cc(F)c1` [Example 7, N-(3,5-Difluorophenyl)-N-methyl-2-pyridinecarbothioamide]: in experiment [1] (25 mg/kg, 1 hour prior to ethanol), the “% Inhibition” value stood at 40%.

For the compound `Fc1cccc(F)c1NC(=S)c1ccccn1` [Example 9, N-(2,6-Difluorophenyl)-2-pyridinecarbothioamide], the ED50 in experiment [1] was found to be 0.38 mg/kg; with stress induced ulcers it was 1.8 mg/kg.

Turning to `Fc1cccc(NC(=S)c2ccccn2)c1F` [Example 10, N--(2,3-difluorophenyl)-2-pyridinecarbothioamide], the ED50 in experiment [1] was found to be 1 mg/kg; in the experiment on stress induced ulcers it was 0.9 mg/kg.

As to `CN/C(=N/CCSCc1nc[nH]c1C)NC#N` [cimetidine], in the experiment on ethanol induced ulcer, the “protection in ethanol induced ulcer model” value is on record as “do not protect in this model”.

In the case of `CN(C(=S)c1ccccn1)c1cccc(F)c1` [Example 6, N-(3-Fluorophenyl)-N-methyl-2-pyridinecarbothioamide], the “% Inhibition” value in experiment [1] (setting [2]) is recorded as 31%.

For the compound `Fc1cccc(NC(=S)c2ccccn2)c1` [Example 4, N-(3-Fluorophenyl)-2-pyridinecarbothioamide], the ED50 in experiment [1] came to 1 mg/kg.

Regarding `CC(C)[N+](C)(CCOC(=O)C1c2ccccc2Oc2ccccc21)C(C)C` [propantheline bromide], the “protection in ethanol induced ulcer model” value in the experiment with ethanol induced ulcer was “do not protect in this model”.

In the case of `Fc1ccc(NC(=S)c2ccccn2)cc1` [Example 3, N-(4-Fluorophenyl)-2-pyridinecarbothioamide], the ED50 in experiment [1] came to 2.5 mg/kg; with stress induced ulcers it was 3.8 mg/kg.

Turning to `Fc1ccccc1NC(=S)c1ccccn1` [Example 5, N-(2-Fluorophenyl)-2-pyridinecarbothioamide], the “% Inhibition” value in experiment [1] (100 mg/kg, 4 hours prior to ethanol) is recorded as 69%.
